Results reported in ChEMBL document CHEMBL1136056, “Discovery of a nonpeptidic small molecule antagonist of the human platelet thrombin receptor (PAR-1)” (Bioorg Med Chem Lett, 2002).

Key:
[1] = biological target: T1, Proteinase-activated receptor 1 (Homo sapiens, UniProt P25116); test: Antagonistic activity against thrombin receptor, inhibition of secreted radiolabeled [3H]5-HT from washed human platelets stimulated by 3 uM thrombin receptor activating peptide (TRAP); type: functional
T1 sequence (P25116 whole entry): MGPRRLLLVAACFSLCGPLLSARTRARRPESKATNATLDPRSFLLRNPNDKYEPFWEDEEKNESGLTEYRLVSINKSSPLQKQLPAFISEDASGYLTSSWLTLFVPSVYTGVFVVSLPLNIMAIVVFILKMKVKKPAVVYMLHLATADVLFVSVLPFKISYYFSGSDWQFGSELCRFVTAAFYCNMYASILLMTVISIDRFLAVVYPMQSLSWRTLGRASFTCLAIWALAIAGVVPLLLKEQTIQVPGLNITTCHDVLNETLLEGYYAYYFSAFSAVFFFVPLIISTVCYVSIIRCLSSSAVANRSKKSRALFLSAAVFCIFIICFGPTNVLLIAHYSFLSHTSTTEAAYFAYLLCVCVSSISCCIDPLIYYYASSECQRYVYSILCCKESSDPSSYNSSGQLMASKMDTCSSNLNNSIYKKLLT

[2] = biological target: T1, Proteinase-activated receptor 1; test: Displacement of [3H]SFFLRR-NH2 from human thrombin receptor PAR-1
[3] = biological target: T2, Proteinase-activated receptor 1 (Homo sapiens) (UniProt P25116); test: Inhibition of secretion of radiolabeled concentration; type: functional; conditions: concentration not given here
T2 sequence (whole entry): T1 sequence (P25116 whole entry)

[4] = biological target: T1, Proteinase-activated receptor 1; test: Inhibition of secretion of radiolabeled serotonin from washed human platelets stimulated by 1 nM thrombin; type: functional
Prothrombin = Prothrombin (Homo sapiens, UniProt P00734); test: Compound was tested for thrombin catalytic activity; no inhibition was observed

Row | IC50 [1] [nM] | IC50 [2] [nM] | inhibition [3] [%] | IC50 [4] [nM] | Ki (Prothrombin) [nM] | Compound
1 | 3300 |  |  |  |  | COc1cccc(CN(CCCN2CCCC2)c2cc(-c3ccccc3)no2)c1
2 | 120 | 890 | 60 |  |  | Cc1cccc(-c2cc(N(CCCN3CCCCCC3)Cc3ccc4c(c3)OCO4)on2)c1
3 | 1310 |  |  | > 10000 |  | Fc1ccc(-c2cc(N(CCCN3CCCCCC3)Cc3ccc4c(c3)OCO4)on2)cc1
4 | 400 | 1200 |  | 4670 |  | COc1ccc(-c2cc(N(CCCN3CCCCCC3)Cc3ccc4c(c3)OCO4)on2)cc1OC
5 | 140 | 770 |  | 1180 |  | Fc1cccc(-c2cc(N(CCCN3CCCCCC3)Cc3ccc4c(c3)OCO4)on2)c1
6 | > 10000 |  |  |  |  | COc1cccc(CN(CCCC2CCCCC2)c2cc(-c3ccccc3)no2)c1
7 | 3700 |  |  |  |  | C[S+]([O-])c1ccc(-c2cc(N(CCCN3CCCCCC3)Cc3ccc4c(c3)OCO4)on2)cc1 (centres undefined)
8 | 5000 |  |  |  |  | c1ccc(-c2cc(N(CCN3CCCCCC3)Cc3cccc4ccccc34)on2)cc1
9 | 2000 |  |  |  |  | c1ccc(-c2cc(N(CCCN3CCCCC3)Cc3ccc4ccccc4c3)on2)cc1
10 | 130 | 260 |  | 2240 |  | COc1cccc(-c2cc(N(CCCN3CCCCCC3)Cc3ccc4c(c3)OCO4)on2)c1
11 | 4440 |  |  |  |  | c1ccc(-c2ccc(-c3cc(N(CCCN4CCCCCC4)Cc4ccc5c(c4)OCO5)on3)cc2)cc1
12 | 2990 |  |  |  |  | Clc1ccccc1-c1cc(N(CCCN2CCCCCC2)Cc2ccc3c(c2)OCO3)on1
13 | 360 |  |  |  |  | c1ccc(-c2cc(N(CCCN3CCCCCC3)Cc3cccc4ccccc34)on2)cc1
14 | 70 |  |  | 2140 |  | COc1ccc(-c2cc(N(CCCN3CCCCCC3)Cc3ccc4c(c3)OCO4)on2)cc1F
15 | 500 | 2140 |  | 2400 |  | Fc1ccc(-c2cc(N(CCCN3CCCCCC3)Cc3ccc4c(c3)OCO4)on2)cc1F
16 | 5000 |  |  |  |  | c1ccc(-c2cc(N(CCCCN3CCCCCC3)Cc3cccc4ccccc34)on2)cc1
17 | 500 |  |  |  |  | COc1cccc(CN(CCCN2CCCCCC2)c2cc(-c3ccccc3)no2)c1
18 | > 40000 |  |  |  |  | CCCCN(CCCN1CCCCC1)c1cc(-c2ccccc2)no1
19 | 1240 | 990 |  | 4250 |  | Clc1ccc(-c2cc(N(CCCN3CCCCCC3)Cc3ccc4c(c3)OCO4)on2)cc1
20 | 430 |  |  | > 4000 |  | CSc1ccc(-c2cc(N(CCCN3CCCCCC3)Cc3ccc4c(c3)OCO4)on2)cc1
21 | 12000 |  |  |  |  | CC(C)N(CC(O)c1ccc(C#N)cc1)C(=O)Nc1ccccc1 (centres undefined)

Row | IC50 [1] [nM] | IC50 [2] [nM] | inhibition [3] [%] | IC50 [4] [nM] | Ki (Prothrombin) [nM] | Compound
22 | 270 | 1160 |  | 910 |  | Clc1cccc(-c2cc(N(CCCN3CCCCCC3)Cc3ccc4c(c3)OCO4)on2)c1
23 | 6420 |  |  |  |  | c1ccc(-c2cccc(-c3cc(N(CCCN4CCCCCC4)Cc4ccc5c(c4)OCO5)on3)c2)cc1
24 | 350 | 600 |  | 1970 |  | N#Cc1cccc(-c2cc(N(CCCN3CCCCCC3)Cc3ccc4c(c3)OCO4)on2)c1
25 | 2220 | 2210 |  |  |  | COc1ccccc1-c1cc(N(CCCN2CCCCCC2)Cc2ccc3c(c2)OCO3)on1
26 | 130 | 250 | 60 |  |  | COc1ccc(-c2cc(N(CCCN3CCCCCC3)Cc3ccc4c(c3)OCO4)on2)cc1
27 | 3220 |  |  |  |  | Cc1ccccc1-c1cc(N(CCCN2CCCCCC2)Cc2ccc3c(c2)OCO3)on1
28 | 1000 |  |  |  |  | Clc1cccc(CN(CCCN2CCCCC2)c2cc(-c3ccccc3)no2)c1
29 | 90 | 470 |  | 880 |  | Ic1ccc(-c2cc(N(CCCN3CCCCCC3)Cc3ccc4c(c3)OCO4)on2)cc1
30 | 600 |  |  |  |  | c1ccc(-c2cc(N(CCCN3CCCCC3)Cc3ccc4c(c3)OCO4)on2)cc1
31 | > 10000 |  |  |  |  | COc1cccc(CN(CCCN2CCC2)c2cc(-c3ccccc3)no2)c1
32 | > 10000 |  |  |  |  | COc1cccc(CN(CCCN2CCCCCCC2)c2cc(-c3ccccc3)no2)c1
33 | 3200 |  |  |  |  | CS(=O)(=O)c1ccc(-c2cc(N(CCCN3CCCCCC3)Cc3ccc4c(c3)OCO4)on2)cc1
34 | 130 | 520 |  | 1200 |  | COc1cc(OC)cc(-c2cc(N(CCCN3CCCCCC3)Cc3ccc4c(c3)OCO4)on2)c1
35 | 90 | 150 |  | 510 | > 10000 | Fc1cc(F)cc(-c2cc(N(CCCN3CCCCCC3)Cc3ccc4c(c3)OCO4)on2)c1
36 | 9000 |  |  |  |  | c1ccc(CN(CCCN2CCCCC2)c2cc(-c3ccccc3)no2)cc1
37 | > 10000 |  |  |  |  | c1ccc(-c2cc(N(CCCN3CCCCC3)CC3CCCCC3)on2)cc1
38 | 140 | 290 |  | 3200 |  | Cc1ccc(-c2cc(N(CCCN3CCCCCC3)Cc3ccc4c(c3)OCO4)on2)cc1
39 | 500 |  |  |  |  | c1ccc(-c2cc(N(CCCN3CCCCC3)Cc3cccc4ccccc34)on2)cc1
40 | 1600 |  |  |  |  | COc1cccc(CN(CCCN2CCCCC2)c2cc(-c3ccccc3)no2)c1
41 | 830 | 1020 |  | > 10000 |  | O=[N+]([O-])c1cccc(-c2cc(N(CCCN3CCCCCC3)Cc3ccc4c(c3)OCO4)[o+][n-]2)c1
